Activity calls are given as the source filed them.
Legend:
[1] = molecular target: Sphingosine 1-phosphate receptor 1 (Homo sapiens, UniProt P21453); test: Fluorescence-based counterscreen assay for S1P4 agonists: Cell-based dose response high throughput screening assay to identify agonists of the Sphingosine 1-Phosphate Receptor 1 (S1P1). [Related pubchem assays (depositor defined):AID1509, AID1523, AID1801, AID463107, AID463118, AID463119, AID463122, AID463123, AID463129, AID463225, AID504400, AID504460]; format: functional
Chain of Sphingosine 1-phosphate receptor 1 (P21453 whole entry): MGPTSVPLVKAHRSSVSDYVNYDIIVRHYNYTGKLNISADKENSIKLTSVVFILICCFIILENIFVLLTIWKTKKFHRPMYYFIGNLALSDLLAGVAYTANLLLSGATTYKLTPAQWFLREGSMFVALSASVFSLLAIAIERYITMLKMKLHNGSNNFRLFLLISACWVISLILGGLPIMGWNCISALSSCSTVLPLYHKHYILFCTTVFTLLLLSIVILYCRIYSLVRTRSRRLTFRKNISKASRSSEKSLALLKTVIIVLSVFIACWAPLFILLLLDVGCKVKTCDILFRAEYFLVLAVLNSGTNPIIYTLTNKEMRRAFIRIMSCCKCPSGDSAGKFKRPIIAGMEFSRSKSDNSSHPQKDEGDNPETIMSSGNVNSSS

Protein Wnt-3a = Protein Wnt-3a (Mus musculus, UniProt P27467); test: antagonism of Wnt3a pathway luciferase reporter – Wnt-LIGHT cells, luminescence, selectivity assay for Gli-SUFU antagonist project, dose response (AID 651570); format: functional; conditions: read-out: IC50_Mean;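 further: Wnt-LIGHT reporter cells stimulated with conditioned medium from Wnt3a-producing cells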
Chain of Protein Wnt-3a (P27467 whole entry): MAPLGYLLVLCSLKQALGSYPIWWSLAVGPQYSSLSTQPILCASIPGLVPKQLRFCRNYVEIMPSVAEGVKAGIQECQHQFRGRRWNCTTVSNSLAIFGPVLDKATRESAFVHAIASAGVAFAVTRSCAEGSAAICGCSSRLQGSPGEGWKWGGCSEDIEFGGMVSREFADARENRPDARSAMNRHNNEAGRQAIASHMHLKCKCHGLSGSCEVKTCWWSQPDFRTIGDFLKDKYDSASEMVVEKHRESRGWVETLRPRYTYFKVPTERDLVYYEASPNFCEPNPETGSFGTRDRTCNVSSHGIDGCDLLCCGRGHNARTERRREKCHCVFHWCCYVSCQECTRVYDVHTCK

[2] = molecular target: T1, Sphingosine 1-phosphate receptor 4 (Homo sapiens, UniProt O95977); test: Fluorescence dose response cell-based high throughput screening assay for agonists of the Sphingosine 1-Phosphate Receptor 4 (S1P4). [Related pubchem assays: 1509 (Primary screen.), 1523 (Confirmation screen in triplicates.)]; format: functional
T1 sequence (O95977 whole entry): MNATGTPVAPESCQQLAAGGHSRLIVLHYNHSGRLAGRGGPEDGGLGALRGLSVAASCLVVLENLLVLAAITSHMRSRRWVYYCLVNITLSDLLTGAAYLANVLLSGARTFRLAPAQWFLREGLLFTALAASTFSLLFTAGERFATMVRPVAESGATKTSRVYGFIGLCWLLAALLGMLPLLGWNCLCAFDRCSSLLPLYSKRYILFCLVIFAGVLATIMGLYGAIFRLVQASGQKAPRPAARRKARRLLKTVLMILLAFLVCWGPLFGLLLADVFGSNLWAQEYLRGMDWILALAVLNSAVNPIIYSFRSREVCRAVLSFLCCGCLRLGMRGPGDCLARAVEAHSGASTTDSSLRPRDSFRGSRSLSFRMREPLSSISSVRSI

[3] = viability of PTEN-deleted HCT116 cells – cell-based, HCT116 PTEN knockout, dose response (AID 1047); format: functional;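 further: HCT116 colon tumor cells with PTEN knocked out; cells exposed to compound for 60 hours before readout; potency for loss of cell viability measured by luminescence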
[4] = viability of HCT116 lacking mutant beta-catenin – cell-based, human colon tumor, dose response (AID 1045); format: functional;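 further: HCT116 colon tumor cells with beta catenin knocked out; cells exposed to compound for 60 hours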
[5] = HEK-293T viability loss after treatment – luminescence, T-cell screen hits, cytotoxicity control for TCR NF-kB inhibitor project, dose response (AID 489026); format: functional, cell-based;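 further: cells exposed to compound about 14 hours before the viability readout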
[6] = Luminescence Cell-Based Dose Response HTS to Identify Activators of Luciferase Translation or Activity in H4 […] Cells. [Related pubchem assays: 1829 (Project Summary), 1814 (Primary HTS)]; format: functional
[7] = molecular target: Potassium voltage-gated channel subfamily KQT member 2 (Rattus norvegicus, UniProt O88943); test: rat KCNQ2 current potentiators – automated patch clamp, KCNQ2-CHO cells, SAR follow-up (AID 493113); format: functional
Chain of Potassium voltage-gated channel subfamily KQT member 2 (O88943 whole entry): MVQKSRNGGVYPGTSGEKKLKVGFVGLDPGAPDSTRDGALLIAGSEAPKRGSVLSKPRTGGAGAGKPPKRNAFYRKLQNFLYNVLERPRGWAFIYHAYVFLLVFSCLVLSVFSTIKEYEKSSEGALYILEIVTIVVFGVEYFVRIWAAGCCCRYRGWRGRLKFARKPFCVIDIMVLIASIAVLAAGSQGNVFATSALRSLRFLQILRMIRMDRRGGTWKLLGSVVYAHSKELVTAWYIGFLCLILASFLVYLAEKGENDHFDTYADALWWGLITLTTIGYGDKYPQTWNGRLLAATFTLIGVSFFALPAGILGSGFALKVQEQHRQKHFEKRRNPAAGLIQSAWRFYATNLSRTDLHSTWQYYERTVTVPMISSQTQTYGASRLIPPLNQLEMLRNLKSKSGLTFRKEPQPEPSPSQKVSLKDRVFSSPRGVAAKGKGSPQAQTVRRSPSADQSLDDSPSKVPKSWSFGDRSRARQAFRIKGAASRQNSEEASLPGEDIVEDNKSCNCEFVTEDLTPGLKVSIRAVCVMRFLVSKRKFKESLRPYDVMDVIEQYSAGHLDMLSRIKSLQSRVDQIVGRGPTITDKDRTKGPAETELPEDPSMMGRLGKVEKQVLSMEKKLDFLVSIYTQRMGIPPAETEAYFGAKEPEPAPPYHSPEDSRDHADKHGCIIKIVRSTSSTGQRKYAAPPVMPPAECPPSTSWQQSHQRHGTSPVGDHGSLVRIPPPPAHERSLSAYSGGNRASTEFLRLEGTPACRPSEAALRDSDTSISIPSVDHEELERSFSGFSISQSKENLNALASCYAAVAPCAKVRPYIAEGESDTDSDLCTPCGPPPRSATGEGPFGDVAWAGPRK

H4 = test: Luminescence Cell-Based Dose Response HTS to Identify Activators of 5'UTR Stem-Loop Driven Prion Protein mRNA Translation in H4 Neuroglioblastoma Cells. [Related pubchem assays: 1829 (Project Summary), 1814 (Primary HTS)]; format: functional; conditions: Homo sapiens
[8] = tested on: Streptococcus sp. 'group A'; test: Streptococcus pyogenes SK(-)GAS viability under kanamycin – luminescence, BacTiterGlo, confirmation, counter-screen for streptokinase expression inhibitor project, dose response (AID 1900); format: functional, organism-based
[9] = molecular target: T2, G-protein coupled receptor 35 (Homo sapiens, UniProt Q9HC97); test: SAR analysis of Agonists of the GPR35 Receptor using an Image-Based Assay - Set 2. [Related pubchem assays (depositor defined):AID2013, AID2026]; format: functional
T2 sequence (Q9HC97 whole entry): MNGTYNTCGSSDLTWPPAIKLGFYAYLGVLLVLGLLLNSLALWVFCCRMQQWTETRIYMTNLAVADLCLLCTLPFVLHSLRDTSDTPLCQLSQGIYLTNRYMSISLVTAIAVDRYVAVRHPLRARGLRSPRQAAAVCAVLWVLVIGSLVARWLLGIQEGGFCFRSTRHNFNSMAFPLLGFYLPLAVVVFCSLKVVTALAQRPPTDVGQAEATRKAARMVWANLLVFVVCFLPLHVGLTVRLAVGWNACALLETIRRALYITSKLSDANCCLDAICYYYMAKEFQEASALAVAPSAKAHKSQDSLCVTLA

Cytochrome P450 3A4 = Cytochrome P450 3A4 (Homo sapiens, UniProt P08684);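 further: CYP3A4 tested as one member of a cytochrome P450 panel screen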
Chain of Cytochrome P450 3A4 (P08684 whole entry): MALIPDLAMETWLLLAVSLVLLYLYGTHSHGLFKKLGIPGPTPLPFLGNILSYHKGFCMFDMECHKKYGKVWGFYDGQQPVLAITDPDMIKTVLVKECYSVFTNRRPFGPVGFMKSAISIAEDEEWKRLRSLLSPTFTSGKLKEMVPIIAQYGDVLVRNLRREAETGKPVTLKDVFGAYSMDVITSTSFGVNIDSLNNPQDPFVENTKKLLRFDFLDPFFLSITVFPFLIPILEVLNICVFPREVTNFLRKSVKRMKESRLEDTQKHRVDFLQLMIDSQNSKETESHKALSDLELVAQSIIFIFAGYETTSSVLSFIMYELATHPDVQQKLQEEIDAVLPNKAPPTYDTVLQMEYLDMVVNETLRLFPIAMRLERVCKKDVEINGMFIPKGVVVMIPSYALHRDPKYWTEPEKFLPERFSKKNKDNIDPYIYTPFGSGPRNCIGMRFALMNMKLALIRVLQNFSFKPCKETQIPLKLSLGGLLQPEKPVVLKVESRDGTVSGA

Cannabinoid receptor 1 [10] = molecular target: T3, Cannabinoid receptor 1 (Homo sapiens, UniProt P21554); test: SAR analysis of agonists of the Cannabinoid Receptor 1 using an Image-Based Assay - Set 2. [Related pubchem assays (depositor defined):AID2013, AID2026]; format: functional
T3 sequence (P21554 whole entry): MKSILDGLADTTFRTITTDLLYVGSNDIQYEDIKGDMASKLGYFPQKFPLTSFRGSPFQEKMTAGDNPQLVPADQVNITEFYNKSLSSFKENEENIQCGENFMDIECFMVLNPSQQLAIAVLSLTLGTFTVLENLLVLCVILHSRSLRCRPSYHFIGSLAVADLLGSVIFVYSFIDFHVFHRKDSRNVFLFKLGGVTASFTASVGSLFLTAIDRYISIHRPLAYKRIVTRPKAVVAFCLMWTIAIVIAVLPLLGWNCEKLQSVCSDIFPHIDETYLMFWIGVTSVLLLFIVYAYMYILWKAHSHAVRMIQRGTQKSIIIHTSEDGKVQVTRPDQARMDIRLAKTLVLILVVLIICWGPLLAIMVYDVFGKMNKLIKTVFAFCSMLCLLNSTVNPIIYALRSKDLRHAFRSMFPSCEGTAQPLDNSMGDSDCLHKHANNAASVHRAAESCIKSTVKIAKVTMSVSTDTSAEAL

Cytochrome P450 2D6 = Cytochrome P450 2D6 (Homo sapiens, UniProt P10635);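 further: CYP2D6 member of a cytochrome P450 panel assay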
Chain of Cytochrome P450 2D6 (P10635 whole entry): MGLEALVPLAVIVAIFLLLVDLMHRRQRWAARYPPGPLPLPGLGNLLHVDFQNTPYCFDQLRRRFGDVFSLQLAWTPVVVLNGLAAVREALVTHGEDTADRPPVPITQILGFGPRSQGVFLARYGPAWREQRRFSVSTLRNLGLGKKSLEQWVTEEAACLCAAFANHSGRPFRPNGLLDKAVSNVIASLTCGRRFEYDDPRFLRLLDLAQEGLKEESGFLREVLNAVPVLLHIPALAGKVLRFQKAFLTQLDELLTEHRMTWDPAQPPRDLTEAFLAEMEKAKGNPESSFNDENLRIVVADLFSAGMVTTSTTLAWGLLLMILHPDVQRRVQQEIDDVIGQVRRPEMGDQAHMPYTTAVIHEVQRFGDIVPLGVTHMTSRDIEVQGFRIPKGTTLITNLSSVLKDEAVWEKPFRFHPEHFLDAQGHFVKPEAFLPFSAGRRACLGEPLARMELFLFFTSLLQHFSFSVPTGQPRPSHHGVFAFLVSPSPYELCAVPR

[11] = molecular target: T4, G-protein coupled receptor 55 (Homo sapiens, UniProt Q9Y2T6); test: inhibition of LPI-stimulated GPR55 beta-arrestin translocation – imaging, U2OS, beta-arrestin-GFP, LPI agonist, primary screen (AID 2013); format: functional;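 further: antagonist potency measured as reduced agonist-driven arrestin aggregation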
T4 sequence (Q9Y2T6 whole entry): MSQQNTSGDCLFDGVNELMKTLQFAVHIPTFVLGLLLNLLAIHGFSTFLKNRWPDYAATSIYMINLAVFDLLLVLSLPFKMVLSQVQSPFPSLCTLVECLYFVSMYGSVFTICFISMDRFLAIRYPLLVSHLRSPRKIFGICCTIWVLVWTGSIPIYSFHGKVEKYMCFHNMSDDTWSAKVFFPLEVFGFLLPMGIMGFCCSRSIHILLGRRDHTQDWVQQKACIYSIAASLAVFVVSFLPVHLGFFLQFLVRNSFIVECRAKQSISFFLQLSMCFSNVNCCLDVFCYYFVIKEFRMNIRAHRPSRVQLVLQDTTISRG

Cannabinoid receptor 2 [12] = molecular target: T5, Cannabinoid receptor 2 (Homo sapiens, UniProt P34972); test: SAR analysis of antagonists of the Cannabinoid Receptor 2 using an Image-Based Assay. [Related pubchem assays (depositor defined):AID2013, AID2026]; format: functional
T5 sequence (P34972 whole entry): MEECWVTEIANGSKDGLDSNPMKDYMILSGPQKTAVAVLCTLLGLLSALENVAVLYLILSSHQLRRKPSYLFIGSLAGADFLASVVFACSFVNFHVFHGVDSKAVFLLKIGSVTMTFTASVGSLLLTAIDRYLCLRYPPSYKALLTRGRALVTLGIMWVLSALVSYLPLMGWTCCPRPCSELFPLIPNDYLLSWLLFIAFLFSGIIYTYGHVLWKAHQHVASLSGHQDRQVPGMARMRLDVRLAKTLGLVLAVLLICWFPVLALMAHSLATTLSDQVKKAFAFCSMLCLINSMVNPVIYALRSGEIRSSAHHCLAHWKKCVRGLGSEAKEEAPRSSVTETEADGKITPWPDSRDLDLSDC

[13] = molecular target: T2, G-protein coupled receptor 35; test: SAR analysis of Antagonists of the GPR35 Receptor using an Image-Based Assay - Set 3. [Related pubchem assays (depositor defined):AID2013, AID2026]; format: functional
[14] = molecular target: Photoreceptor-specific nuclear receptor (Homo sapiens, UniProt Q9Y5X4); test: ligands suppressing NR2E3 nuclear receptor activity – biochemical, TR-FRET, dose response (AID 463256); format: functional
Chain of Photoreceptor-specific nuclear receptor (Q9Y5X4 whole entry): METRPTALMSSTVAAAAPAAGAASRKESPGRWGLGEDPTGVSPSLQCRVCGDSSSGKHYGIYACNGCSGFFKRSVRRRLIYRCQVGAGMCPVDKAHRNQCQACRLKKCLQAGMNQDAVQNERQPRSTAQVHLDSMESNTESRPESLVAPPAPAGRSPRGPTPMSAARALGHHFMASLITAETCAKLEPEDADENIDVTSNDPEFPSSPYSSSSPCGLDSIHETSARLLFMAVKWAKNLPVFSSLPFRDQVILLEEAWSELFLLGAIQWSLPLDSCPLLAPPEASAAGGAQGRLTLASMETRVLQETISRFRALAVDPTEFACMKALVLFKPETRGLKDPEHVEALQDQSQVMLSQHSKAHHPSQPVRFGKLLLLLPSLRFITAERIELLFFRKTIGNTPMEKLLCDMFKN

Streptokinase A = molecular target: T6, Streptokinase A (Streptococcus pyogenes serotype M1, UniProt P10520); test: viability-normalized secreted streptokinase activity reduction – plasminogen activation absorbance, OD405, dose response (AID 1914); format: functional, Streptococcus pyogenes M1 GAS;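 further: secreted streptokinase activity via plasminogen activation per viability signal from cell pellet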
T6 sequence (P10520 whole entry): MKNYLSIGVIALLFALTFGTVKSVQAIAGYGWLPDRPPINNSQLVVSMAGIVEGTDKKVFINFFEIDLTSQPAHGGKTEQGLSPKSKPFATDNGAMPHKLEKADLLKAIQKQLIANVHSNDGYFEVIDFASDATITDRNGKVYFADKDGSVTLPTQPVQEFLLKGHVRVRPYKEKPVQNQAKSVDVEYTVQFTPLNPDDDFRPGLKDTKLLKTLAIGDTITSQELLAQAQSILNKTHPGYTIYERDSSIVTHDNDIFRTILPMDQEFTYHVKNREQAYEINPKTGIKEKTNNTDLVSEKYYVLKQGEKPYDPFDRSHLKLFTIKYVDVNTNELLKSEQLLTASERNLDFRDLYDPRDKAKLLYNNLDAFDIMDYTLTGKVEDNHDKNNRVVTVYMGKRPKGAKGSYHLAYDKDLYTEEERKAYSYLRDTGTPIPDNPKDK

Cannabinoid receptor 2 [15] = molecular target: T5, Cannabinoid receptor 2; test: SAR analysis of agonists of the Cannabinoid Receptor 2 using an Image-Based Assay. [Related pubchem assays (depositor defined):AID2013, AID2026]; format: functional
[16] = molecular target: T4, G-protein coupled receptor 55; test: blockade of LPI-induced GPR55 arrestin translocation – imaging, U2OS, beta-arrestin-GFP, LPI agonist, set 2, SAR follow-up (AID 2820); format: functional
[17] = molecular target: Peroxisome proliferator-activated receptor gamma/Nuclear receptor corepressor 2 (Homo sapiens, UniProt P37231+Q9Y618); test: Counterscreen for NR2E3 inverse agonists: TR-FRET-based biochemical high throughput dose response assay to identify inverse agonists of the interaction between peroxisome proliferator-activated receptor gamma (PPARg) and nuclear receptor co-repressor 2 (NCOR2).; format: functional
Cannabinoid receptor 1 [18] = molecular target: T3, Cannabinoid receptor 1; test: SAR analysis of antagonists of the Cannabinoid Receptor 1 using an Image-Based Assay - Set 2. [Related pubchem assays (depositor defined):AID2013, AID2026]; format: functional
Streptococcus = test: GAS UMAA2166 growth inhibition – luminescence, BacTiterGlo, counter-screen for streptokinase expression inhibitor project, dose response (AID 1915); format: functional, organism-based;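 further: potency for reduction of bacterial viability or growth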

## COc1ccc(-c2c(C#N)c(N)nc3c2CCc2ccccc2-3)cc1OC
[1]
  EC50: > 49.8 µM (inactive)
Protein Wnt-3a
  IC50: 17.9 µM (active)
[2]
  EC50: 43.6 µM (not active)
[3]
  EC50: 5.19 µM (active)
[4]
  EC50: 5.59 µM (active)
[5]
  IC50: 38.1 µM (inactive)

## CC(C)c1ccc(NC(=O)C2CC3CCC2C3)cc1 (centres undefined)
[6]
  EC50: 0.432 µM (active)
[7]
  EC50: 0.72 µM (active)
H4
  EC50: 65.4 µM (active)

## Cc1nnc(-c2cccc(Br)c2)c2cn(-c3ccc(Br)cc3)nc12
[8]
  EC50: 3.53 µM (active)
[9]
  EC50: > 32 µM (inactive)
Cytochrome P450 3A4
  AC50: inconclusive
Cannabinoid receptor 1 [10]
  EC50: > 32 µM (inactive)
Cytochrome P450 2D6
  AC50: 12.6 µM (inconclusive)
[11]
  IC50: 0.915 µM (active)
Cannabinoid receptor 2 [12]
  IC50: > 32 µM (inactive)
[13]
  IC50: > 32 µM (inactive)
[14]
  IC50: 18.8 µM (not active)
Streptokinase A
  EC50: 19.2 µM (active)
Cannabinoid receptor 2 [15]
  EC50: > 32 µM (inactive)
[16]
  IC50: 0.893 µM (active)
[17]
  IC50: 14.5 µM (not active)
Cannabinoid receptor 1 [18]
  IC50: 13.9 µM (inactive)
Streptococcus
  EC50: 28.4 µM (active)

Reference: ChEMBL document CHEMBL1201862, “PubChem BioAssay data set” (2004)
